{"source": "patent US20140357512A1", "about": "“HISTONE DEACETYLASE (HDAC) BIOMARKERS IN MULTIPLE MYELOMA” (priority 2013, published 2014)", "system": "human myeloma cell line MM.1S", "experiment": "SILAC acetylated-lysine peptide profiling, HDAC inhibitor vs DMSO (light/heavy ratio)", "assay_type": "cell-based", "excerpt": "An embodiment of the invention comprises utilizing the SILAC method in order to quantitate changes in protein expression between two or more populations of cells. The SILAC method is a technique based on mass spectrometry that detects differences in protein abundance among samples using non-radioactive isotopic labeling. The SILAC method is known in the art, and described in detail in Ong et al., “Stable Isotope Labeling by Amino Acids in Cell Culture, SILAC, as a Simple and Accurate Approach to Expression Proteomics”, Molecular & Cellular Proteomics, vol. 1, pp. 376-386 (2002), which is incorporated herein by reference in its entirety.\nBriefly, the SILAC method involves growing two populations of cells in cell culture. The first population of cells is grown in growth media containing normal amino acids (“normal media”). The second population of cells is grown in media lacking a standard essential amino acid (such as lysine), but is then supplemented with a non-radioactive, isotopically labeled form of that essential amino acid (such as lysine labeled with ^13C atoms, rather than normal ^12C atoms), which is called “heavy media”. When the two populations of cells are each growing in the medium, they incorporate the amino acids into all of their proteins. The growth of cells maintained in the heavy media is no different from that in normal media. All peptides containing the heavy amino acids are heavier than their normal counterparts. The cells from each of the two populations of cells are lysed. The lysates from each of the two cell populations are then combined. The combined cell lysates are then analyzed by mass spectrometry. Pairs of chemically identical peptides of different stable isotope composition can be differentiated in a mass spectrometer due to their difference in mass. The ratio of peak intensities in the mass spectrum for such peptide pairs reflects the abundance ratio for the two proteins.\nThis example describes SILAC studies that were performed to compare the effects of three different HDAC inhibitors (Compound A, Compound B, and tubastatin A) to a control on a human multiple myeloma cell line. The HDAC inhibitors were also compared amongst themselves to determine differences in their effects.\nA human myeloma cell line MM.1S was grown using either ^12C (light) or ^13C (heavy) lysine containing culture medium. The “heavy” cells were treated with DMSO as the control, and the “light” cells were treated with a single HDAC inhibitor at 37° C. for 6 hours. The heavy and light cells were lysed, and the lysates were mixed in 1:1 ratio and digested with the protease trypsin. The acetylated lysine containing peptides (due to the action of the HDAC inhibitor) in the digested peptide pool were captured by a non-specific anti-acetylated lysine antibody cocktail (the antibodies identify both light and heavy acetylated peptides), and subjected to mass spectrometry analysis in order to identify thousands of individual peptides.\nThousands of peptides were identified in pairs (^12C and ^13C) due to their known mass differences. The amino acid sequence and quantitative ratio (Light/Heavy) of a given peptide in two differentially treated cell lysates were then determined and annotated with their possible protein (gene) sources.\nAs stated above, three HDAC inhibitors (Compound A, Compound B, and Tubastatin A) were used. Thus, the SILAC method was performed three times, with a different HDAC inhibitor compared to a control each time. Accordingly, there are three pairs of quantitative data in the table below, i.e., Compound A:DMSO, Compound B:DMSO, and Tubastatin A:DMSO. A cut-off of 1.30 fold of change (increase or decrease) was then used to determine “changed” or “+” in the table, and any peptides with a fold of change less than 1.3 fold were determined to be “unchanged” or “0” in the table. Those peptides that were not identified were marked as “NA” in the table. […]"}
{"compound": "CN1CCc2c(c3ccccc3n2Cc2ccc(C(=O)NO)cc2)C1", "note": "[Tub A]", "values": [{"measurement": "L/H ratio of acetylated peptide ASGLAAGK(ac)GVIVAK (SEQ ID NO: 37)", "setting": "GART [156], log 2 scale, drug vs DMSO", "value": 0.46}, {"measurement": "light to heavy ratio (L/H ratio) of acetylated peptide, log 2 scale", "setting": "GDASK(ac)EDIDTAMK (SEQ ID NO: 161), Isoform 1 of Hydroxyacyl-coenzyme A dehydrogenase mitochondrial [241], HADH", "value": 0.47}, {"measurement": "light to heavy ratio (L/H ratio) of acetylated peptide, log 2 scale", "setting": "GDGTGGK(ac)SIYGER (SEQ ID NO: 196), Peptidyl-prolyl cis-trans isomerase B [116], PPIB", "value": "−0.54"}, {"measurement": "light to heavy ratio (L/H ratio) of acetylated peptide, log 2 scale", "setting": "GFAFVTFDDHDSVDK(ac)IVIQK (SEQ ID NO: 165), Isoform A1-B of Heterogeneous nuclear ribonucleoprotein A1 [161], HNRNPA1", "value": "−0.53"}, {"measurement": "light to heavy ratio (L/H ratio) of acetylated peptide, log 2 scale", "setting": "GFGGK(ac)YGVER (SEQ ID NO: 162), Hematopoietic lineage cell-specific protein [123], HCLS1", "value": 0.77}, {"measurement": "light to heavy ratio (L/H ratio) of acetylated peptide, log 2 scale", "setting": "GHLENNPALEK(ac)LLPHIR (SEQ ID NO: 208), 60S acidic ribosomal protein P0 [77], RPLP0", "value": "−0.48"}, {"measurement": "light to heavy ratio (L/H ratio) of acetylated peptide, log 2 scale", "setting": "GIVK(ac)DIIHDPGR (SEQ ID NO: 207), 60S ribosomal protein L8 [46], RPL8", "value": "−0.54"}, {"measurement": "light to heavy ratio (L/H ratio) of acetylated peptide, log 2 scale", "setting": "GLFIIDDK(ac)GILR (SEQ ID NO: 197), Peroxiredoxin-1 [136], PRDX1", "value": "−0.77"}, {"measurement": "light to heavy ratio (L/H ratio) of acetylated peptide, log 2 scale", "setting": "GLSSLLYGSIPK(ac)AAVR (SEQ ID NO: 220), Tricarboxylate transport protein mitochondrial [97], SLC25A1", "value": 0.44}, {"measurement": "L/H ratio of acetylated peptide LVK(ac)VWNLANCK (SEQ ID NO: 39)", "setting": "GNB2L1 [175], log 2 scale, drug vs DMSO", "value": "−0.70"}, {"measurement": "L/H ratio of acetylated peptide IIVDELK(ac)QEVISTSSK (SEQ ID NO: 38)", "setting": "GNB2L1 [271], log 2 scale, drug vs DMSO", "value": "−0.62"}, {"measurement": "light to heavy ratio (L/H ratio) of acetylated peptide, log 2 scale", "setting": "GPIGSIGPK(ac)GIPGEDGYR (SEQ ID NO: 146), Isoform 1 of Collagen alpha-3(VI) chain [2052], COL6A3", "value": "−0.80"}, {"measurement": "L/H ratio of acetylated peptide", "setting": "GSK(ac)K(ac)AVTK (SEQ ID NO: 490), Histone H2B type 2-E [16:17], HIST2H2BE", "value": 0.00, "unit": "log 2"}, {"measurement": "L/H ratio of acetylated peptide (ac)AHYNFK(ac)K (SEQ ID NO: 40)", "setting": "GTPBP4 [7], log 2 scale, drug vs DMSO", "value": "−0.38"}, {"measurement": "light to heavy ratio (L/H ratio) of acetylated peptide, log 2 scale", "setting": "GTVRPANDFNPDADAK(ac)ALR (SEQ ID NO: 130), Annexin A6 [370], ANXA6", "value": 0.44}, {"measurement": "L/H ratio of acetylated peptide", "setting": "GYGFGLIK(ac)LDLK (SEQ ID NO: 465), Voltage-dependent anion-selective channel protein 1 [28], VDAC1", "value": 0.00, "unit": "log 2"}, {"measurement": "light to heavy ratio (L/H ratio) of acetylated peptide, log 2 scale", "setting": "GYLTK(ac)EDLR (SEQ ID NO: 216), Protein S100-A10 [28], S100A10", "value": 1.00}, {"measurement": "light to heavy ratio (L/H ratio) of acetylated peptide (ac)ACGLVASNLNLK(ac)PGECLR (SEQ ID NO: 575)", "setting": "Galectin-1 [13], gene LGALS1, inhibitor:DMSO", "value": 0.00, "unit": "log 2"}, {"measurement": "light to heavy ratio (L/H ratio) of acetylated peptide ISGASEK(ac)DIVHSGLAYTMER (SEQ ID NO: 543)", "setting": "Glutamate dehydrogenase 1 mitochondrial [503], gene GLUD1, inhibitor:DMSO", "value": 0.00, "unit": "log 2"}, {"measurement": "light to heavy ratio (L/H ratio) of acetylated peptide VVK(ac)QASEGPLK (SEQ ID NO: 597)", "setting": "Glyceraldehyde-3-phosphate dehydrogenase [263], gene GAPDH, inhibitor:DMSO", "value": 0.00, "unit": "log 2"}, {"measurement": "light to heavy ratio (L/H ratio), log 2 scale, acetylated peptide LLLLGAGESGK(ac)STIVK (SEQ ID NO: 769)", "setting": "Guanine nucleotide-binding protein G(olf) subunit alpha [55], gene GNAL, drug:DMSO", "value": 0.00}, {"measurement": "L/H ratio of acetylated peptide AGGK(ac)AGK(ac)DSGK (SEQ ID NO: 15)", "setting": "H2AFV [5:8], log 2 scale, drug vs DMSO", "value": 0.47}, {"measurement": "L/H ratio of acetylated peptide GQQQVFK(ac)GLNDK (SEQ ID NO: 41)", "setting": "HADHA [406], log 2 scale, drug vs DMSO", "value": 0.46}, {"measurement": "L/H ratio of acetylated peptide EPVAVLK(ac)ANR (SEQ ID NO: 9)", "setting": "HEXB [161], log 2 scale, drug vs DMSO", "value": "−0.58"}, {"measurement": "light to heavy ratio (L/H ratio) of acetylated peptide, log 2 scale", "setting": "HIK(ac)ENDYYTPTGEFR (SEQ ID NO: 227), Dolichyl-diphosphooligosaccharide--protein glycosyltransferase subunit STT3A [613], STT3A", "value": "−0.44"}, {"measurement": "L/H ratio of acetylated peptide PDPAK(ac)SAPAPK(ac)K (SEQ ID NO: 16)", "setting": "HIST1H2BO [6:12], log 2 scale, drug vs DMSO", "value": 0.47}, {"measurement": "light to heavy ratio (L/H ratio) of acetylated peptide, log 2 scale", "setting": "HK(ac)DIDILIVR (SEQ ID NO: 178), Isocitrate dehydrogenase [NAD] subunit gamma mitochondrial [159], IDH3G", "value": "−1.00"}, {"measurement": "light to heavy ratio (L/H ratio) of acetylated peptide SLNLK(ac)HIK (SEQ ID NO: 607)", "setting": "HLA-B associated transcript 1 [188], gene SNORD84, DDX39B, inhibitor:DMSO", "value": 0.00, "unit": "log 2"}, {"measurement": "L/H ratio of acetylated peptide K(ac)HPDSSVNFAEFSK (SEQ ID NO: 42)", "setting": "HMGB2 [30], log 2 scale, drug vs DMSO", "value": "−0.48"}, {"measurement": "L/H ratio of acetylated peptide RGEEGHDPK(ac)EPEQLR (SEQ ID NO: 43)", "setting": "HNRNPA3 [29], log 2 scale, drug vs DMSO", "value": "−0.45"}, {"measurement": "L/H ratio of acetylated peptide AFITNIPFDVK(ac)WQSLK (SEQ ID NO: 44)", "setting": "HNRNPM [83], log 2 scale, drug vs DMSO", "value": "−0.48"}, {"measurement": "L/H ratio of acetylated peptide AAEVLNK(ac)HSLSGRPLK (SEQ ID NO: 3)", "setting": "HNRNPM [134], log 2 scale, drug vs DMSO", "value": "−0.87"}, {"measurement": "L/H ratio of acetylated peptide VK(ac)VLFVR (SEQ ID NO: 45)", "setting": "HNRNPR [341], log 2 scale, drug vs DMSO", "value": "−0.77"}, {"measurement": "L/H ratio of acetylated peptide GYFEYIEENK(ac)YSR (SEQ ID NO: 46)", "setting": "HNRNPU [246], log 2 scale, drug vs DMSO", "value": "−0.60"}, {"measurement": "L/H ratio of acetylated peptide TTWVTK(ac)HAAENPGK (SEQ ID NO: 47)", "setting": "HNRNPU [497], log 2 scale, drug vs DMSO", "value": "−0.56"}, {"measurement": "L/H ratio of acetylated peptide NK(ac)EIFLR (SEQ ID NO: 52)", "setting": "HSP90B1 [97], log 2 scale, drug vs DMSO", "value": "−1.00"}, {"measurement": "L/H ratio of acetylated peptide […](ac)IR (SEQ ID NO: 49)", "setting": "HSP90B1 [114], log 2 scale, drug vs DMSO", "value": "−0.53"}, {"measurement": "L/H ratio of acetylated peptide EELVK(ac)NLGTIAK (SEQ ID NO: 48)", "setting": "HSP90B1 [161], log 2 scale, drug vs DMSO", "value": "−0.60"}, {"measurement": "L/H ratio of acetylated peptide ETLQQHK(ac)LLK (SEQ ID NO: 50)", "setting": "HSP90B1 [455], log 2 scale, drug vs DMSO", "value": "−0.74"}, {"measurement": "L/H ratio of acetylated peptide IADDK(ac)YNDTFWK (SEQ ID NO: 51)", "setting": "HSP90B1 [479], log 2 scale, drug vs DMSO", "value": "−0.78"}, {"measurement": "L/H ratio of acetylated peptide NQLTSNPENTVFDAK(ac)R (SEQ ID NO: 54)", "setting": "HSPA5 [96], log 2 scale, drug vs DMSO", "value": "−0.74"}, {"measurement": "L/H ratio of acetylated peptide […](ac)R (SEQ ID NO: 53)", "setting": "HSPA5 [213], log 2 scale, drug vs DMSO", "value": "−0.54"}, {"measurement": "L/H ratio of acetylated peptide […](ac)R (SEQ ID NO: 55)", "setting": "HSPA8 [71], log 2 scale, drug vs DMSO", "value": "−0.48"}, {"measurement": "light to heavy ratio (L/H ratio) of acetylated peptide NQVALNPQNTVFDAK(ac)R (SEQ ID NO: 267)", "setting": "Heat shock 70 kDa protein 1A/1B [71], HSPA1B, HSPA1A, drug:DMSO", "value": 0.59, "unit": "log 2"}]}
